For one data set, the system named is DIO mouse. As to the kind of experiment: Anti-obesity effect test using DIO mouse. The class given is in vivo. The conditions noted are these: 336 h, DIO mice, vs vehicle group, read-out: Weight loss rate; for inhibition in vivo at 50 mg/kg: oral 50 mg/kg once daily for 2 weeks; for inhibition in vivo at 25 mg/kg: oral 25 mg/kg once daily for 2 weeks. Here is the method: (Test Example 4): Anti-Obesity Effect Test Using DIO Mouse
Diet-induced obesity (DIO) mice (D-12492 diet, male, C57BL-DIO, 26 to 28-week old) were orally administered with a 0.5 W/V % methylcellulose suspension comprising each test compound (Compound administration group, 5 or 6 mice/group) or a 0.5 W/V % methylcellulose suspension (Compound non-administration group (Vehicle group), 6 mice/group) once daily for 2 weeks. Weight loss rate was calculated by the following equation. Weight loss rate (%) of each Compound administration group−(1−average weight at the last day of the test of each Compound administration group/average weight at the last day of the test of Vehicle group)×100

A further data set relates to HFD-fed mouse. As to the kind of experiment: Fecal protein concentration-increasing test by single administration using HFD-fed mouse. Format: in vivo. To be noted: 24 h, HFD-fed mice, vs vehicle group, read-out: Ratio for an increase of protein concentration in feces; for response vs control in vivo at 50 mg/kg: single oral dose 50 mg/kg; for response vs control in vivo at 30 mg/kg: single oral dose 30 mg/kg. The text has this:
(Test Example 3): Fecal Protein Concentration-Increasing Test by Single Administration Using HFD-Fed Mouse
High fat diet-fed (HFD-fed) mice (D-12492 diet, male, ICR, 6 week old) were orally administered with a 0.5 W/V % methylcellulose suspension comprising each test compound (Compound administration group, 4 or 5 mice/group) or a 0.5 W/V % methylcellulose suspension (Compound non-administration group (Vehicle group), 5, 6, or 7 mice/group), and whole feces of the day were collected. Dried feces were dissolved into a 0.5N aqueous sodium hydroxide solution, followed by centrifugation at 3500 rpm. Then each protein concentration in the resulting supernatant was determined (Lowry method), and the ratio for an increase of protein concentration in feces was calculated by the following equation using the protein concentration in feces contained in 1 g of feces (mg/g feces). Ratio for an increase of protein concentration in feces−(average protein concentration in feces of Compound administration group)[…](average protein concentration in feces of Compound non-administration group)

Data set [1] has as its target T1, Human recombinant trypsin (Homo sapiens, UniProt P07477).
T1 construct: purchased Wako Pure Chemical Industries, Ltd. 206-17171
As to the kind of experiment: Human trypsin inhibition test. Format: biochemical. To be noted: 20 minutes after reaction start, read-out: Inhibition rate (trypsin); for inhibition at 0.01 µM: compound concentration 10 nM; for inhibition at 0.1 µM: compound concentration 100 nM; for inhibition at 0.001 µM: compound concentration 1 nM. A digest of the protocol:
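Trypsin diluted to 10 ng/mL in 0.1 M Tris-HCl pH8.0, 0.15 M NaCl, 10 mM CaCl2, 0.05% Brij35; substrate solution 40 μM Boc-Phe-Ser-Arg-MCA, compounds in 1% DMSO buffer. Fluorescence (ex 355/em 460 nm) read 20 min after enzyme addition; % inhibition versus no-compound and no-enzyme controls.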

The target of data set [2] is T2, Human recombinant enteropeptidase (Homo sapiens, UniProt P98073).
T2 construct: purchased BIO Vision Inc. 7529-50
T2 sequence (P98073 whole entry): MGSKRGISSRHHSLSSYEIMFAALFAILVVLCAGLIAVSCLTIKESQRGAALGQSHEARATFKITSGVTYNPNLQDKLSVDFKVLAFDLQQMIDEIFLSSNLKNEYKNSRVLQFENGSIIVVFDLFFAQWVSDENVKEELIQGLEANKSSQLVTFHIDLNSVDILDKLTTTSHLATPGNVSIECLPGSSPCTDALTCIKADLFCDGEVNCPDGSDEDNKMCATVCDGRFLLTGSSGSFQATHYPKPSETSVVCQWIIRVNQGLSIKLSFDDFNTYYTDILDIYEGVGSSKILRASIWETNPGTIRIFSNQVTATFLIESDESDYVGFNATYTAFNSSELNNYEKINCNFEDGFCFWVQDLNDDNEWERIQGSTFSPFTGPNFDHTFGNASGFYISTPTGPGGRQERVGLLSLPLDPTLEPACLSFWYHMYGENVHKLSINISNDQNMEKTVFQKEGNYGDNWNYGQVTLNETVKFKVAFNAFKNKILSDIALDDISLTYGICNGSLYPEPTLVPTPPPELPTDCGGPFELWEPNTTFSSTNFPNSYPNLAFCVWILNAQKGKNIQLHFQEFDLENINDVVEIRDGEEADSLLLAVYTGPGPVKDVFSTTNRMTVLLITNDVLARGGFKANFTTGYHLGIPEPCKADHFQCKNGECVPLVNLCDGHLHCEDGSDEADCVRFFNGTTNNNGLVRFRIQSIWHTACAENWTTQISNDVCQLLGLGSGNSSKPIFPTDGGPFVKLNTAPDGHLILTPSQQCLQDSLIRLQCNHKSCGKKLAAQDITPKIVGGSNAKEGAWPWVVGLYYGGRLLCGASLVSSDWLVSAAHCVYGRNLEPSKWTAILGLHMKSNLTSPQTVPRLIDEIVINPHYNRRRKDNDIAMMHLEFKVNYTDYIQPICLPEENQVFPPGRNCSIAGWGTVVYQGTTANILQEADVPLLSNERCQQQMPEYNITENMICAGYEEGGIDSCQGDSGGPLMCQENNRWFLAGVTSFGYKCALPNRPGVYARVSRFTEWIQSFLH
As to the kind of experiment: Human enteropeptidase inhibition test. Format: biochemical. To be noted: read-out: Inhibition rate (enteropeptidase); for inhibition at 0.001 µM: compound concentration 1 nM. A digest of the protocol: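 Recombinant human enteropeptidase in 50 mM tricine pH 8.0, 0.01% Tween 20, 10 mM CaCl2 cleaving 1.5 μM 5FAM/CPQ2-quenched peptide substrate (stock solution concentration). Fluorescence (ex 485/em 535 nm) read 20 min after enzyme addition; % inhibition versus no-compound and no-enzyme controls.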

Data set [3] is described as follows: Rat pharmacokinetic (PK) test (plasma concentration after oral administration). To be noted: male, SD.
Where [4] appears, read: 20 minutes after reaction start.
Where [5] appears, read: compound concentration 10 nM, 20 minutes after reaction start.
The mark [6] stands for this setting: compound concentration 100 nM, 20 minutes after reaction start.

Structures are written as SMILES. Structures can show the parent of a compound that is named as a salt. Where two headings read alike, the source gives them in different places. A value given as a limit tells only on which side of the number the result lay.

The term inhibition denotes the change of the read-out against control, counted positive when it falls. For `N=C(N)Nc1ccc2c(c1)CCCOc1c(cccc1C(=O)N(CCOCCOCCOCCN(C(=O)c1cccc3c1OCCCc1cc(NC(=N)N)ccc1C(=O)O3)[C@@H](CC(=O)O)C(=O)O)[C@@H](CC(=O)O)C(=O)O)OC2=O` [27-(b), (2S,165)-3,15-bis(10-guanidino-13-oxo-6,7,8,13-tetrahydrodibenzo[b,f][1,4]dioxecin-4-carbonyl)-6,9,12-trioxa-3,15-diazaheptadecane-1,2,16,17-tetracarboxylic acid], the inhibition in vivo at 50 mg/kg in the data set on DIO mouse is at least 4%. Moreover, in the data set on HFD-fed mouse, the response vs control in vivo at 50 mg/kg is at least 130%. The inhibition at 0.01 µM in data set [1] and in data set [2] (setting [5]) was at least 50% each time. Besides, the inhibition at 0.1 µM in data set [1] and in data set [2] (setting [6]) was at least 50% throughout. For the same molecule, the inhibition at 0.001 µM in data set [2] (setting [4]) is at least 50%.
A word on the AUC: it is concentration integrated over time. `N=C(N)Nc1ccc(C(=O)Oc2ccc(COC(=O)N(CCOCCOCCOCCOCCN(C(=O)OCc3ccc(OC(=O)c4ccc(NC(=N)N)cc4)cc3)C(CC(=O)O)C(=O)O)C(CC(=O)O)C(=O)O)cc2)cc1` (centres unmarked) [10-(b), 3,18-bis(((4-((4-guanidinobenzoyl)oxy)benzyl)oxy)carbonyl)-6,9,12,15-tetraoxa-3,18-diazaicosane-1,2,19,20-tetracarboxylic acid trifluoroacetate]: the inhibition in vivo at 87 mg/kg with DIO mouse (oral 87 mg/kg once daily for 2 weeks) was at least 4%. Also, the response vs control in vivo at 79 mg/kg in the data set with HFD-fed mouse (single oral dose 79 mg/kg) was at least 130%. In addition, the inhibition at 0.01 µM in data set [1] and in data set [2] (setting [5]) was at least 50% throughout. In addition, the inhibition at 0.1 µM in data set [1] and in data set [2] (setting [6]) was at least 50% each time. In data set [3] (8 mg/kg), this molecule returned an AUC of at most 100 ng·h/mL.
With `N=C(N)Nc1ccc2c(c1)CCCOc1c(cccc1C(=O)N(CCOCCN(C(=O)c1cccc3c1OCCCc1cc(NC(=N)N)ccc1C(=O)O3)[C@@H](CC(=O)O)C(=O)O)[C@@H](CC(=O)O)C(=O)O)OC2=O` [26-(b), (2S,2′S)-2,2′-((oxybis(ethane-2,1-diyl))bis((10-guanidino-13-oxo-6,7,8,13-tetrahydrodibenzo[b,f][1,4]dioxecin-4-carbonyl)azanediyl))disuccinic acid], in the data set on DIO mouse, the inhibition in vivo at 50 mg/kg is at least 4%. For the same molecule, in the data set on HFD-fed mouse, the response vs control in vivo at 50 mg/kg is at least 130%. In addition, the inhibition at 0.001 µM in data set [1] and in data set [2] (setting [4]) was at least 50% in each case. Moreover, the inhibition at 0.01 µM in data set [1] and in data set [2] (setting [5]) was at least 50% each time. The AUC in data set [3] (10 mg/kg) was at most 100 ng·h/mL.
For `N=C(N)Nc1ccc2c(c1)CCCOc1c(cccc1C(=O)N(CCOCCOCCN(C(=O)c1cccc3c1OCCCc1cc(NC(=N)N)ccc1C(=O)O3)[C@@H](CC(=O)O)C(=O)O)[C@@H](CC(=O)O)C(=O)O)OC2=O` [20-(b), (2S,13S)-3,12-bis(10-guanidino-13-oxo-6,7,8,13-tetrahydrodibenzo[b,f][1,4]dioxecin-4-carbonyl)-6,9-dioxa-3,12-diazatetradecane-1,2,13,14-tetracarboxylic acid trifluoroacetate], the inhibition in vivo at 25 mg/kg in the data set on DIO mouse is at least 4%. In addition, in the data set on HFD-fed mouse, the response vs control in vivo at 30 mg/kg is at least 130%. Besides, the inhibition at 0.001 µM in data set [1] and in data set [2] (setting [4]) was at least 50% throughout. Further, the inhibition at 0.01 µM in data set [1] and in data set [2] (setting [5]) was at least 50% each time. In addition, the inhibition at 0.1 µM in data set [1] and in data set [2] (setting [6]) was at least 50% throughout.
Turning to `N=C(N)Nc1ccc(C(=O)Oc2ccc(CNS(=O)(=O)N(CCOCCOCCN([C@@H](CC(=O)O)C(=O)O)S(=O)(=O)NCc3ccc(OC(=O)c4ccc(NC(=N)N)cc4)cc3)[C@@H](CC(=O)O)C(=O)O)cc2)cc1` [2-(b), (2S,13S)-3,12-bis(N-(4-((4-guanidinobenzoyl)oxy)benzyl)sulfamoyl)-6,9-dioxa-3,12-diazatetradecane-1,2,13,14-tetracarboxylic acid trifluoroacetate], the response vs control in vivo at 86 mg/kg in the data set with HFD-fed mouse (single oral dose 86 mg/kg) was at least 130%. In addition, the inhibition at 0.001 µM in data set [1] and in data set [2] (setting [4]) was at least 50% throughout. Also, the inhibition at 0.01 µM in data set [1] and in data set [2] (setting [5]) was at least 50% in each case. Moreover, the inhibition at 0.1 µM in data set [1] and in data set [2] (setting [6]) was at least 50% each time.
Consider `N=C(N)Nc1ccc2c(c1)CCCOc1c(cccc1C(=O)N(CCOCCOCCN(C(=O)c1cccc3c1OCCCc1cc(NC(=N)N)ccc1C(=O)O3)[C@H](CC(=O)O)C(=O)O)[C@H](CC(=O)O)C(=O)O)OC2=O` [21-(b), (2R,13R)-3,12-bis(10-guanidino-13-oxo-6,7,8,13-tetrahydrodibenzo[b,f][1,4]dioxecin-4-carbonyl)-6,9-dioxa-3,12-diazatetradecane-1,2,13,14-tetracarboxylic acid trifluoroacetate], for which the inhibition in vivo at 25 mg/kg in the data set on DIO mouse was at least 4%. Further, in the data set with HFD-fed mouse, the response vs control in vivo at 30 mg/kg is at least 130%. Moreover, the inhibition at 0.01 µM in data set [1] and in data set [2] (setting [5]) was at least 50% in each case. In addition, the inhibition at 0.1 µM in data set [1] and in data set [2] (setting [6]) was at least 50% each time. The inhibition at 0.001 µM in data set [2] (setting [4]) is at least 50%.
With `N=C(N)Nc1ccc(C(=O)Oc2ccc(CNS(=O)(=O)N(CCOCCOCCOCCOCCOCCN([C@@H](CC(=O)O)C(=O)O)S(=O)(=O)NCc3ccc(OC(=O)c4ccc(NC(=N)N)cc4)cc3)[C@@H](CC(=O)O)C(=O)O)cc2)cc1` [5-(b), (2S,22S)-3,21-bis(N-(4-((4-guanidinobenzoyl)oxy)benzyl)sulfamoyl)-6,9,12,15,18-pentaoxa-3,21-diazatricosane-1,2,22,23-tetracarboxylic acid trifluoroacetate], the response vs control in vivo at 30 mg/kg in the data set on HFD-fed mouse was at least 130%. Besides, in data set [1], the inhibition at 0.001 µM is at least 50%, the inhibition at 0.01 µM was at least 50% and the inhibition at 0.1 µM was at least 50%. Besides, in data set [2], the inhibition at 0.01 µM was at least 50% and the inhibition at 0.1 µM is at least 50%.
As to `N=C(N)Nc1ccc(C(=O)Oc2ccc(COC(=O)N(CC(=O)N[C@@H](CC(=O)O)C(=O)NCCOCCOCCOCCOCCNC(=O)[C@H](CC(=O)O)NC(=O)CN(Cc3cccc(C(=O)O)c3)C(=O)OCc3ccc(OC(=O)c4ccc(NC(=N)N)cc4)cc3)Cc3cccc(C(=O)O)c3)cc2)cc1` [14-(b), (3S,22S)-3,22-bis(2-((3-carboxybenzyl) (((4-((4-guanidinobenzoyl)oxy)benzyl)oxy)carbonyl)amino)acetamido)-4,21-dioxo-8,1,14,17-tetraoxa-5,20-diazatetracosane-1,24-dioic acid trifluoroacetate], the inhibition in vivo at 90 mg/kg in the data set on DIO mouse (oral 90 mg/kg once daily for 2 weeks) was at least 4%. For the same molecule, the response vs control in vivo at 89 mg/kg in the data set on HFD-fed mouse (single oral dose 89 mg/kg) was at least 130%. Moreover, in data set [1], the inhibition at 0.001 µM is at least 50%, the inhibition at 0.01 µM is at least 50% and the inhibition at 0.1 µM is at least 50%. Moreover, the inhibition at 0.01 µM in data set [2] (setting [5]) is at least 50%. Also, in data set [2] (setting [6]), the inhibition at 0.1 µM was at least 50%.

Values taken from patent US11465965B2, “Double-headed protease inhibitor” (UBE INDUSTRIES, LTD., priority 2017, dated 2022).
